Experimental data reported in PMC6874179, “Development of Macrocycle Kinase Inhibitors for ALK2 Using Fibrodysplasia Ossificans Progressiva‐Derived Endothelial Cells” (JBMR Plus, 2019).

How the values were obtained:
MAP3K5 = molecular target: T1, MAP3K5 (Homo sapiens, UniProt Q99683); test: Proqinase Kinase profiling; format: biochemical; conditions: read-out: % inhibition at 100nM
T1 construct: purchased DiscoverX

CDK16_cyclinY = molecular target: T2, CDK16_cyclinY (Homo sapiens, UniProt Q00536); test: Proqinase Kinase profiling; format: biochemical; conditions: read-out: % inhibition at 100nM
T2 construct: purchased DiscoverX

SGK1 = molecular target: T3, SGK1 (Homo sapiens, UniProt O00141); test: Proqinase Kinase profiling; format: biochemical; conditions: read-out: % inhibition at 100nM
T3 construct: purchased DiscoverX

MET_Y1235D = molecular target: T4, MET_Y1235D (Homo sapiens, UniProt P08581, Y1235D); test: Proqinase Kinase profiling; format: biochemical; conditions: read-out: % inhibition at 100nM
T4 construct: purchased DiscoverX

LRRK2_G2019S = molecular target: T5, LRRK2_G2019S (Homo sapiens, UniProt Q5S007, G2019S); test: Proqinase Kinase profiling; format: biochemical; conditions: read-out: % inhibition at 100nM
T5 construct: purchased DiscoverX

CAMK1D = molecular target: T6, CAMK1D (Homo sapiens, UniProt Q8IU85); test: Proqinase Kinase profiling; format: biochemical; conditions: read-out: % inhibition at 100nM
T6 construct: purchased DiscoverX

AKT2 = molecular target: T7, AKT2 (Homo sapiens, UniProt P31751); test: Proqinase Kinase profiling; format: biochemical; conditions: read-out: % inhibition at 100nM
T7 construct: purchased DiscoverX

NTRK3 = molecular target: T8, NTRK3 (Homo sapiens, UniProt Q16288); test: Proqinase Kinase profiling; format: biochemical; conditions: read-out: % inhibition at 100nM
T8 construct: purchased DiscoverX

CDK5_p35 = molecular target: T9, CDK5_p35 (Homo sapiens, UniProt Q00535); test: Proqinase Kinase profiling; format: biochemical; conditions: read-out: % inhibition at 100nM
T9 construct: purchased DiscoverX

MAPK11 = molecular target: T10, MAPK11 (Homo sapiens, UniProt Q15759); test: Proqinase Kinase profiling; format: biochemical; conditions: read-out: % inhibition at 100nM
T10 construct: purchased DiscoverX

HIPK3 = molecular target: T11, HIPK3 (Homo sapiens, UniProt Q9H422); test: Proqinase Kinase profiling; format: biochemical; conditions: read-out: % inhibition at 100nM
T11 construct: purchased DiscoverX

RPS6KB2 = molecular target: T12, RPS6KB2 (Homo sapiens, UniProt Q9UBS0); test: Proqinase Kinase profiling; format: biochemical; conditions: read-out: % inhibition at 100nM
T12 construct: purchased DiscoverX

EGFR = molecular target: T13, EGFR (Homo sapiens, UniProt P00533); test: Proqinase Kinase profiling; format: biochemical; conditions: read-out: % inhibition at 100nM
T13 construct: purchased DiscoverX

TEK_R849W = molecular target: T14, TEK_R849W (Homo sapiens, UniProt Q02763, R849W); test: Proqinase Kinase profiling; format: biochemical; conditions: read-out: % inhibition at 100nM
T14 construct: purchased DiscoverX

HCK = molecular target: T15, HCK (Homo sapiens, UniProt P08631); test: Proqinase Kinase profiling; format: biochemical; conditions: read-out: % inhibition at 100nM
T15 construct: purchased DiscoverX
T15 sequence (P08631 whole entry): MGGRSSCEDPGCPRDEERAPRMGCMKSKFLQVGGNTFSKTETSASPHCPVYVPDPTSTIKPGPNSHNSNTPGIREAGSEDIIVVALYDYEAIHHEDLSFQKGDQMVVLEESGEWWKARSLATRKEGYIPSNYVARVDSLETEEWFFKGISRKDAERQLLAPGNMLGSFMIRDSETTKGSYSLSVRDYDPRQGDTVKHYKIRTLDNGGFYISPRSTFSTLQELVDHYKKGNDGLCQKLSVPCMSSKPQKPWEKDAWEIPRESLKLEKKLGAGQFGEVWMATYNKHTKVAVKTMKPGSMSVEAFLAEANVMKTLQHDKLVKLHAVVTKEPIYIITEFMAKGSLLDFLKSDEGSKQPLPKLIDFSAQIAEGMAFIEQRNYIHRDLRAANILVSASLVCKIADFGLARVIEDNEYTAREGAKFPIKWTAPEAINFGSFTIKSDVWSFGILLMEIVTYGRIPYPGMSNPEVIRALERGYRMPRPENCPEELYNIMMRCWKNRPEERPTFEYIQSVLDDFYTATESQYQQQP

RET_Y791F = molecular target: T16, RET_Y791F (Homo sapiens, UniProt P07949, Y791F); test: Proqinase Kinase profiling; format: biochemical; conditions: read-out: % inhibition at 100nM
T16 construct: purchased DiscoverX

NUAK1 = molecular target: T17, NUAK1 (Homo sapiens, UniProt O60285); test: Proqinase Kinase profiling; format: biochemical; conditions: read-out: % inhibition at 100nM
T17 construct: purchased DiscoverX

MET_Y1230H = molecular target: T18, MET_Y1230H (Homo sapiens, UniProt P08581, Y1230H); test: Proqinase Kinase profiling; format: biochemical; conditions: read-out: % inhibition at 100nM
T18 construct: purchased DiscoverX
T18 sequence (P08581 25-1390 Y1230H): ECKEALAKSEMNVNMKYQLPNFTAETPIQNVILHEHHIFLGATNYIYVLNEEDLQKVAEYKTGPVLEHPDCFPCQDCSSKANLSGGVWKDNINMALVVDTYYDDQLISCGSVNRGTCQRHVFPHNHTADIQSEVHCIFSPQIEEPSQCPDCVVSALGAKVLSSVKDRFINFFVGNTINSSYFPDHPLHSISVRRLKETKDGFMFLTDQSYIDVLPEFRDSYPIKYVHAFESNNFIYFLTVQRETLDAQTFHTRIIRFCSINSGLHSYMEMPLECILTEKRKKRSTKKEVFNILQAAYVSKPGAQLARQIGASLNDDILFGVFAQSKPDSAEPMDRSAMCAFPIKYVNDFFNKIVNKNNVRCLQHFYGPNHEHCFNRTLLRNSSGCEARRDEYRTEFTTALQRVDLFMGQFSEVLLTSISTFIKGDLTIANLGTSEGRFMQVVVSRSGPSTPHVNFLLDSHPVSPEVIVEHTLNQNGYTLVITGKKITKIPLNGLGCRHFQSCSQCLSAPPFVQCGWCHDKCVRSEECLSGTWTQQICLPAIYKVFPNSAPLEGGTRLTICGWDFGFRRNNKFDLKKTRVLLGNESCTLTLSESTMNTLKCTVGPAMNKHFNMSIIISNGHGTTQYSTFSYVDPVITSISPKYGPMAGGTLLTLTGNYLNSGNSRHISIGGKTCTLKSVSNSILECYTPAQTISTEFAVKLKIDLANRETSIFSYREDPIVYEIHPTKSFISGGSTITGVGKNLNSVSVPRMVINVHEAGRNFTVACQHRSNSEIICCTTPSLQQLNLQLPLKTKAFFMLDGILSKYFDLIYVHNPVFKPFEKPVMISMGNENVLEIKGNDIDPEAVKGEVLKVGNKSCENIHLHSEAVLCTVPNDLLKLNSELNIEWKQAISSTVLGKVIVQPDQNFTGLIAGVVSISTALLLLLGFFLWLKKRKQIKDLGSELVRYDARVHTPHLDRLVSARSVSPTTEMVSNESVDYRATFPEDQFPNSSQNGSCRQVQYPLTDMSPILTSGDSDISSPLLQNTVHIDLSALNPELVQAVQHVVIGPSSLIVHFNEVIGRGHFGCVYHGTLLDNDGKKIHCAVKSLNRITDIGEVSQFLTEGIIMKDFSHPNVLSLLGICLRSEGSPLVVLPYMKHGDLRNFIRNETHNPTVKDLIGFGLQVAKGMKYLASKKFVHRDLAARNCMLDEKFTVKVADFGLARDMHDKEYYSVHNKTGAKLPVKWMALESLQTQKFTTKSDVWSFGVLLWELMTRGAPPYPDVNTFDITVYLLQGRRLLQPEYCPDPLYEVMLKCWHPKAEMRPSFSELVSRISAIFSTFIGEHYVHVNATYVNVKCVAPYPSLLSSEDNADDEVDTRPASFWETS

DCLK2 = molecular target: T19, DCLK2 (Homo sapiens, UniProt Q8N568); test: Proqinase Kinase profiling; format: biochemical; conditions: read-out: % inhibition at 100nM
T19 construct: purchased DiscoverX

[1] = tested on: BMP-6-induced BRE-LUC reporter activity; test: BMP BRE-LUC reporter assay in KS483 cells; format: cell-based, mouse; conditions: BMP-6 50 ng/mL 16 hours
Method: (§1) Compounds were added for 16 hours at 0.5μM before luciferase activity was measured.
For luciferase reporter assays, cells were seeded in 24-well plates and transfected with DharmaFECT Duo (Fisher Scientific, Landsmeer, The Netherlands), following the recommendations of the manufacturer. 48 hours after transfection the cells were harvested and lysed. […] Each transfection mixture was equalized with empty vector when necessary and every experiment was performed in triplicate.

TEK_Y897S = molecular target: T20, TEK_Y897S (Homo sapiens, UniProt Q02763, Y897S); test: Proqinase Kinase profiling; format: biochemical; conditions: read-out: % inhibition at 100nM
T20 construct: purchased DiscoverX

BMP-6-induced p-Smad1/5 = test: Western blot of p-Smad1/5 in KS483 cells; format: cell-based, mouse
Method: as §1
Cells were seeded into 6-well plates and cultured till they reached confluence. Next, cells were stimulated as indicated and then washed with cold PBS. […] Electrophoresis was performed in 10% SDS/polyacrylamide gels. Separated proteins were transferred to nitrocellulose membranes (0.5 A at 100 V; in ice) for 1 hour. Blots were blocked in Tris-Buffered Saline solution containing 0.1% Tween 20 and 5% non-fat dry milk overnight at 4 °C, and immune-detection of specific proteins was carried out with primary antibodies (see above) followed by horseradish peroxidase-conjugated anti-mouse or anti-rabbit (GE Healthcare, Eindhoven, The Netherlands) secondary antibodies using an ECL system (Fisher Scientific, Landsmeer, The Netherlands).

CDK2_cyclinA2 = molecular target: T21, CDK2_cyclinA2 (Homo sapiens, UniProt P24941); test: Proqinase Kinase profiling; format: biochemical; conditions: read-out: % inhibition at 100nM
T21 construct: purchased DiscoverX

CSNK1D = molecular target: T22, CSNK1D (Homo sapiens, UniProt P48730); test: Proqinase Kinase profiling; format: biochemical; conditions: read-out: % inhibition at 100nM
T22 construct: purchased DiscoverX

DYRK4 = molecular target: T23, DYRK4 (Homo sapiens, UniProt Q9NR20); test: Proqinase Kinase profiling; format: biochemical; conditions: read-out: % inhibition at 100nM
T23 construct: purchased DiscoverX

MELK = molecular target: T24, MELK (Homo sapiens, UniProt Q14680); test: Proqinase Kinase profiling; format: biochemical; conditions: read-out: % inhibition at 100nM
T24 construct: purchased DiscoverX

PRKCB1_I = molecular target: T25, PRKCB1_I (Homo sapiens, UniProt P05771); test: Proqinase Kinase profiling; format: biochemical; conditions: read-out: % inhibition at 100nM
T25 construct: purchased DiscoverX

STK33 = molecular target: T26, STK33 (Homo sapiens, UniProt Q9BYT3); test: Proqinase Kinase profiling; format: biochemical; conditions: read-out: % inhibition at 100nM
T26 construct: purchased DiscoverX

CSNK1E = molecular target: T27, CSNK1E (Homo sapiens, UniProt P49674); test: Proqinase Kinase profiling; format: biochemical; conditions: read-out: % inhibition at 100nM
T27 construct: purchased DiscoverX

CDK9_cyclinT1 = molecular target: T28, CDK9_cyclinT1 (Homo sapiens, UniProt P50750); test: Proqinase Kinase profiling; format: biochemical; conditions: read-out: % inhibition at 100nM
T28 construct: purchased DiscoverX

JAK2 = molecular target: T29, JAK2 (Homo sapiens, UniProt O60674); test: Proqinase Kinase profiling; format: biochemical; conditions: read-out: % inhibition at 100nM
T29 construct: purchased DiscoverX

EGFR_L747-E749del_A750P = molecular target: T30, EGFR_L747-E749del_A750P (Homo sapiens, UniProt P00533, A750P/DEL747-749); test: Proqinase Kinase profiling; format: biochemical; conditions: read-out: % inhibition at 100nM
T30 construct: purchased DiscoverX

ABL1_T351I = molecular target: T31, ABL1_T351I (Homo sapiens, UniProt P00519, T315I); test: Proqinase Kinase profiling; format: biochemical; conditions: read-out: % inhibition at 100nM
T31 construct: purchased DiscoverX

EGFR_L747-S752del_P753S = molecular target: T32, EGFR_L747-S752del_P753S (Homo sapiens, UniProt P00533, DEL747-752/P753S); test: Proqinase Kinase profiling; format: biochemical; conditions: read-out: % inhibition at 100nM
T32 construct: purchased DiscoverX
T32 sequence (P00533 with tags, fused parts or gaps DEL747-752/P753S limits assumed): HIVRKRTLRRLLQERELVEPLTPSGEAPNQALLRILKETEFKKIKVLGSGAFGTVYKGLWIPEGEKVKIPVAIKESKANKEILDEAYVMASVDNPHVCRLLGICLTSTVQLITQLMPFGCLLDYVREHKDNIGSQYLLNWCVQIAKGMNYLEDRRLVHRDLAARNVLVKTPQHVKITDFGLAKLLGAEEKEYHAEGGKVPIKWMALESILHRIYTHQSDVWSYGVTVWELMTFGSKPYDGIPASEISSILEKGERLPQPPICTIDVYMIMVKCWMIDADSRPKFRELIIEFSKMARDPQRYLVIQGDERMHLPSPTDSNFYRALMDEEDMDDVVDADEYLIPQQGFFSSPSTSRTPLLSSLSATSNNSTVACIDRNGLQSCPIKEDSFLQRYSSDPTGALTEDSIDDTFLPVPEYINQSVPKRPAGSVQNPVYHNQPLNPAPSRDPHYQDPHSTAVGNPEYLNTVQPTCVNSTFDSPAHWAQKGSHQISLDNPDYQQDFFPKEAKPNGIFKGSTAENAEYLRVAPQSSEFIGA

MYLK3 = molecular target: T33, MYLK3 (Homo sapiens, UniProt Q32MK0); test: Proqinase Kinase profiling; format: biochemical; conditions: read-out: % inhibition at 100nM
T33 construct: purchased DiscoverX

PDGFRA_T674I = molecular target: T34, PDGFRA_T674I (Homo sapiens, UniProt P16234, T674I); test: Proqinase Kinase profiling; format: biochemical; conditions: read-out: % inhibition at 100nM
T34 construct: purchased DiscoverX
T34 sequence (P16234 24-1089 T674I): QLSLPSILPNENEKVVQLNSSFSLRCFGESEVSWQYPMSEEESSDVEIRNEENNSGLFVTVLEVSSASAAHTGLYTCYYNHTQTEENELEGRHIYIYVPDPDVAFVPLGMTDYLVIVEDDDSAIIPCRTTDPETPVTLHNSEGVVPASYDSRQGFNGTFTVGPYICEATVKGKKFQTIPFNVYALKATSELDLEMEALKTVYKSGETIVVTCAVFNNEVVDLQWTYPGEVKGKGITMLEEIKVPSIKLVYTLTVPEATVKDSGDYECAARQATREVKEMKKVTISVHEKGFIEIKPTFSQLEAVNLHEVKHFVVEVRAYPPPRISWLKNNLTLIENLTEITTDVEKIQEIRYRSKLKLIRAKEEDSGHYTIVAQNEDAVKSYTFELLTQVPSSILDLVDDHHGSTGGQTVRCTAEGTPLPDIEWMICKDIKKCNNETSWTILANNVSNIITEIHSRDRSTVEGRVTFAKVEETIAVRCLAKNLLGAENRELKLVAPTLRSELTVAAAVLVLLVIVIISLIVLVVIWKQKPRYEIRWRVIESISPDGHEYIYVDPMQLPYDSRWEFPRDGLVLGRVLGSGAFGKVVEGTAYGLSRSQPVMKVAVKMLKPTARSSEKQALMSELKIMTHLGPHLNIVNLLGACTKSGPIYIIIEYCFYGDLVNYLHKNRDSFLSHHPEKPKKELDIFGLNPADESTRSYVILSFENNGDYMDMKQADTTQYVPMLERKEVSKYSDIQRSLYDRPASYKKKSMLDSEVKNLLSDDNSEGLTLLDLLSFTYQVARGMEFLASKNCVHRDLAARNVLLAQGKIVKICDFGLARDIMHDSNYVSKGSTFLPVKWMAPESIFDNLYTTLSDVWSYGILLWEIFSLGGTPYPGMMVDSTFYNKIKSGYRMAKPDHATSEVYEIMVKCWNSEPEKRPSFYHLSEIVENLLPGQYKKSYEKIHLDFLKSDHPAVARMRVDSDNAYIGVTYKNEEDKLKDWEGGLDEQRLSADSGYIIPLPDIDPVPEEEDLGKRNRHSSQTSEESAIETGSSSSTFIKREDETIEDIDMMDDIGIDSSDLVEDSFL

T1 sequence (Q99683 whole entry): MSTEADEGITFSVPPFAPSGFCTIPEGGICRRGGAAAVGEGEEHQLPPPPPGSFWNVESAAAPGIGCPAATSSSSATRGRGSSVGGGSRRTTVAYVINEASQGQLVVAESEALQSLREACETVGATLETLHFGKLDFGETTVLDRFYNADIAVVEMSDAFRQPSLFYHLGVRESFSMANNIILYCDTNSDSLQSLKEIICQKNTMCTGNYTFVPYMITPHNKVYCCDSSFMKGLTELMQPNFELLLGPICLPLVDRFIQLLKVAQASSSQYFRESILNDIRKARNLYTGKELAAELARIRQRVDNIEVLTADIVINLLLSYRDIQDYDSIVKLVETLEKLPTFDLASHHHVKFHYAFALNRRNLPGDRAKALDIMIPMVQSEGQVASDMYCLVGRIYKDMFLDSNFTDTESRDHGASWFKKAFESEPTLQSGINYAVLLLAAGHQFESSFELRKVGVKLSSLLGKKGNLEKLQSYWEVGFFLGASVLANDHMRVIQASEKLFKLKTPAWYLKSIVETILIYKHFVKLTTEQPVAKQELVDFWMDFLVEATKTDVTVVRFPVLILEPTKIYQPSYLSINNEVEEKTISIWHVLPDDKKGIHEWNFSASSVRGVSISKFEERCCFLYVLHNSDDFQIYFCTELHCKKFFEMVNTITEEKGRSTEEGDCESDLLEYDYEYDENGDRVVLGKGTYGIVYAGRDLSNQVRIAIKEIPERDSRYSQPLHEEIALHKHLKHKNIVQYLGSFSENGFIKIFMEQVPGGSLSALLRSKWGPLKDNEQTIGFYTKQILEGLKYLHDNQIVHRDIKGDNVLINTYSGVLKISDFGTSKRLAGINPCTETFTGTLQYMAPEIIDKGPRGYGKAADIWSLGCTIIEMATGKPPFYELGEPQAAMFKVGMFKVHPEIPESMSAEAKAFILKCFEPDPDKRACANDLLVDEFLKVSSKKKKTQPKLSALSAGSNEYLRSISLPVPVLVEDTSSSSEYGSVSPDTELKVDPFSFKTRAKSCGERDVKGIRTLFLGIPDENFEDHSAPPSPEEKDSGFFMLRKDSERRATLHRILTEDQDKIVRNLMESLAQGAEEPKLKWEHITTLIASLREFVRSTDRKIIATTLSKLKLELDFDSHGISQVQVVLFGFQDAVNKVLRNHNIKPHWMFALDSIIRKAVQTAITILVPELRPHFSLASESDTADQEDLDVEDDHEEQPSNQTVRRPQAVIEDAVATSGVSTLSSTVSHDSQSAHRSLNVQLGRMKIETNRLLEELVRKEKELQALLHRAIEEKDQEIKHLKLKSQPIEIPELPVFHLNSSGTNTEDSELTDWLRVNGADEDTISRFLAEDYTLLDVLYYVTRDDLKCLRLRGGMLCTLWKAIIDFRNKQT

SMILES | inhibition at 0.1 µM (MAP3K5) [%] | inhibition at 0.1 µM (CDK16_cyclinY) [%] | inhibition at 0.1 µM (SGK1) [%] | inhibition at 0.1 µM (MET_Y1235D) [%] | inhibition at 0.1 µM (LRRK2_G2019S) [%] | inhibition at 0.1 µM (CAMK1D) [%] | inhibition at 0.1 µM (AKT2) [%] | inhibition at 0.1 µM (NTRK3) [%] | inhibition at 0.1 µM (CDK5_p35) [%] | inhibition at 0.1 µM (MAPK11) [%] | inhibition at 0.1 µM (HIPK3) [%] | inhibition at 0.1 µM (RPS6KB2) [%] | inhibition at 0.1 µM (EGFR) [%] | inhibition at 0.1 µM (TEK_R849W) [%] | inhibition at 0.1 µM (HCK) [%] | inhibition at 0.1 µM (RET_Y791F) [%] | inhibition at 0.1 µM (NUAK1) [%] | inhibition at 0.1 µM (MET_Y1230H) [%] | inhibition at 0.1 µM (DCLK2) [%] | Inhibition of BMP-6-stimulated BRE-LUC reporter activity [1] | further results
Clc1cc2cc(c1)-c1cnn3ccc(nc13)NCCOCCO2 [OD36] | 13 | 12 | 16 | -5 | 61 | 6 | 2 | 17 | 9 | 11 | 12 | 11 | 3 | 8 | 29 | 30 | 6 | -3 | 11 | in the submicromolar range | inhibition at 0.1 µM (TEK_Y897S): 12%; Inhibition of BMP-6-induced p-Smad1/5 (BMP-6-induced p-Smad1/5): efficiently inhibited; inhibition at 0.1 µM (CDK2_cyclinA2): 4%; inhibition at 0.1 µM (CSNK1D): 10%; inhibition at 0.1 µM (DYRK4): 14%; inhibition at 0.1 µM (MELK): 21%; inhibition at 0.1 µM (PRKCB1_I): 7%; inhibition at 0.1 µM (STK33): -1%; inhibition at 0.1 µM (CSNK1E): 6%; inhibition at 0.1 µM (CDK9_cyclinT1): 17%; inhibition at 0.1 µM (JAK2): 7%; inhibition at 0.1 µM (EGFR_L747-E749del_A750P): 2%; inhibition at 0.1 µM (ABL1_T351I): 9%; inhibition at 0.1 µM (EGFR_L747-S752del_P753S): 10%; inhibition at 0.1 µM (MYLK3): 15%; inhibition at 0.1 µM (PDGFRA_T674I): -22%
Cc1cc2cc(c1)-c1cnn3ccc(nc13)NCCNC(=O)CCN(C)C2 [OD52] | -12 | -2 | 22 | -15 | 39 | -4 | -9 | 24 | -8 | -5 | -10 | 4 | -14 | -16 | 0 | 30 | -4 | -20 | 7 | in the submicromolar range | inhibition at 0.1 µM (TEK_Y897S): -31%; Inhibition of BMP-6-induced p-Smad1/5 (BMP-6-induced p-Smad1/5): efficiently inhibited; inhibition at 0.1 µM (CDK2_cyclinA2): 0%; inhibition at 0.1 µM (CSNK1D): 5%; inhibition at 0.1 µM (DYRK4): 4%; inhibition at 0.1 µM (MELK): 15%; inhibition at 0.1 µM (PRKCB1_I): -5%; inhibition at 0.1 µM (STK33): -13%; inhibition at 0.1 µM (CSNK1E): 20%; inhibition at 0.1 µM (CDK9_cyclinT1): -3%; inhibition at 0.1 µM (JAK2): 9%; inhibition at 0.1 µM (EGFR_L747-E749del_A750P): -9%; inhibition at 0.1 µM (ABL1_T351I): -15%; inhibition at 0.1 µM (EGFR_L747-S752del_P753S): -15%; inhibition at 0.1 µM (MYLK3): 2%; inhibition at 0.1 µM (PDGFRA_T674I): 4%
